Measured values taken from US20250129070A1, “BIFUNCTIONAL ANDROGEN RECEPTOR COMPOUNDS” (priority 2023, published 2025).
pEC50: −log10 of the molar value.

System: AR / CBP ternary complex
Test: Ternary complex formation assay (sandwich ELISA, AR capture / CBP detection) in VCaP cell lysates
Format: cell-based
Conditions: 1.5 hours treatment, sandwich ELISA (AR capture, CBP or p300 detection)
Procedure, shortened: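 VCaP cells (50K/well, 5% charcoal-stripped FBS, ≥3 days) treated with bifunctional compound for 1.5 h, then lysed 30 min at 4 °C. AR captured on anti-AR (AR 441) plates; bound CBP or p300 detected by rabbit mAb plus HRP secondary. QuantaRed chemifluorescence read at ex 570/em 585, immediately and at 5 and 15 min.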

Row | SMILES | pEC50
1 | CC(=O)N1CCc2c(c(Nc3ccc(-c4cnn(C)c4)cc3F)nn2C2CCN(CCC3CCN(c4ncc(C(=O)NC5C(C)(C)C(Oc6ccc(C#N)c(Cl)c6)C5(C)C)cn4)CC3)C2)C1 (stereo not drawn) [Compound 6, 2-[4-[2-[3-[5-acetyl-3-[2-fluoro-4-(1-methylpyrazol-4-yl)anilino]-6,7-dihydro-4H-pyrazolo[4,3-c]pyridin-1-yl]pyrrolidin-1-yl]ethyl]-1-piperidyl]-N-[3-(3-chloro-4-cyano-phenoxy)-2,2,4,4-tetramethyl-cyclobutyl]pyrimidine-5-carboxamide] | < 7.00
2 | CC(=O)N1CCc2c(c(-c3cccc4cc(-c5ccc(CC6CCN(c7ncc(C(=O)NC8C(C)(C)C(Oc9ccc(C#N)c(Cl)c9)C8(C)C)cn7)CC6)nc5)ncc34)nn2C2CCOCC2)C1 (stereo not drawn) [Compound 140, 2-[4-[[5-[8-(5-acetyl-1-tetrahydropyran-4-yl-6,7-dihydro-4H-pyrazolo[4,3-c]pyridin-3-yl)-3-isoquinolyl]-2-pyridyl]methyl]-1-piperidyl]-N-[3-(3-chloro-4-cyano-phenoxy)-2,2,4,4-tetramethyl-cyclobutyl]pyrimidine-5-carboxamide] | > 9.00
3 | CC(=O)N1CCc2c(c(N3CCCc4cc(-c5cnn(C)c5)c(C(F)F)cc43)nn2C2CCN(C(C)C3CCN(c4ncc(C(=O)NC5C(C)(C)C(Oc6ccc(C#N)c(Cl)c6)C5(C)C)cn4)CC3)CC2)C1 (stereo not drawn) [Compound 113, 2-[4-[1-[4-[5-acetyl-3-[7-(difluoromethyl)-6-(1-methylpyrazol-4-yl)-3,4-dihydro-2H-quinolin-1-yl]-6,7-dihydro-4H-pyrazolo[4,3-c]pyridin-1-yl]-1-piperidyl]ethyl]-1-piperidyl]-N-[3-(3-chloro-4-cyano-phenoxy)-2,2,4,4-tetramethyl-cyclobutyl]pyrimidine-5-carboxamide] | > 9.00
4 | CC(=O)N1CCc2c(c(Nc3ccc(-c4cnn(C)c4)cc3F)nn2C2CCN(C3CCN(c4ncc(C(=O)NC5C(C)(C)C(Oc6ccc(C#N)c(Cl)c6)C5(C)C)cn4)CC3)C2)C1 (stereo not drawn) [Compound 8, 2-[4-[3-[5-acetyl-3-[2-fluoro-4-(1-methylpyrazol-4-yl)anilino]-6,7-dihydro-4H-pyrazolo[4,3-c]pyridin-1-yl]pyrrolidin-1-yl]-1-piperidyl]-N-[3-(3-chloro-4-cyano-phenoxy)-2,2,4,4-tetramethyl-cyclobutyl]pyrimidine-5-carboxamide] | < 7.00
5 | CNC(=O)N1CCc2c(c(N3CCCc4cc(-c5cnn(C)c5)c(C(F)F)cc43)nn2C2CCN(CCOCc3ncc(C(=O)NC4C(C)(C)C(Oc5ccc(C#N)c(Cl)c5)C4(C)C)cn3)CC2)C1 (stereo not drawn) [Compound 86, 1-[1-[2-[[5-[[3-(3-chloro-4-cyano-phenoxy)-2,2,4,4-tetramethyl-cyclobutyl]carbamoyl]pyrimidin-2-yl]methoxy]ethyl]-4-piperidyl]-3-[7-(difluoromethyl)-6-(1-methylpyrazol-4-yl)-3,4-dihydro-2H-quinolin-1-yl]-N-methyl-6,7-dihydro-4H-pyrazolo[4,3-c]pyridine-5-carboxamide] | < 7.00

The next lines start with the values.

Row | pEC50 | SMILES
6 | > 9.00 | COc1cc(OC2C(C)(C)C(NC(=O)c3ccc(N4CCC[C@@H](N5CCC(n6nc(N7CCCc8cc(-c9cnn(C)c9)c(C(F)F)cc87)c7c6CCN(C(C)=O)C7)CC5)C4)cc3)C2(C)C)ccc1C#N (stereo partly drawn) [Compound 400, 4-[(3R)-3-[4-[5-acetyl-3-[7-(difluoromethyl)-6-(1-methylpyrazol-4-yl)-3,4-dihydro-2H-quinolin-1-yl]-6,7-dihydro-4H-pyrazolo[4,3-c]pyridin-1-yl]-1-piperidyl]-1-piperidyl]-N-[3-(4-cyano-3-methoxy-phenoxy)-2,2,4,4-tetramethyl-cyclobutyl]benzamide]
7 | 8.00 to 9.00 | COc1cc(OC2C(C)(C)C(NC(=O)c3ccc(N4CC(N5CCCC6(CCC(n7nc(N8CCCc9cc(-c%10cnn(C)c%10)c(C(F)F)cc98)c8c7CCN(C(C)=O)C8)CC6)C5)C4)cc3)C2(C)C)ccc1C#N (stereo not drawn) [Compound 416, 4-[3-[9-[5-acetyl-3-[7-(difluoromethyl)-6-(1-methylpyrazol-4-yl)-3,4-dihydro-2H-quinolin-1-yl]-6,7-dihydro-4Hpyrazolo[4,3-c]pyridin-1-yl]-2-azaspiro[5.5]undecan-2-yl]azetidin-1-yl]-N-[3-(4-cyano-3-methoxy-phenoxy)-2,2,4,4-tetramethyl-cyclobutyl]benzamide]
8 | 8.00 to 9.00 | COc1cc(OC2C(C)(C)C(NC(=O)c3ccc(N4CCC(C5CCC(n6nc(N7CCCc8cc(-c9cnn(C)c9)c(C(F)F)cc87)c7c6CCN(C(C)=O)C7)CC5)CC4)cc3)C2(C)C)ccc1C#N (stereo not drawn) [Compound 259, 4-[4-[4-[5-acetyl-3-[7-(difluoromethyl)-6-(1-methylpyrazol-4-yl)-3,4-dihydro-2H-quinolin-1-yl]-6,7-dihydro-4H-pyrazolo[4,3-c]pyridin-1-yl]cyclohexyl]-1-piperidyl]-N-[3-(4-cyano-3-methoxy-phenoxy)-2,2,4,4-tetramethyl-cyclobutyl]benzamide]
9 | < 7.00 | CC(=O)N1CCc2c(c(N3CCCc4cc(-c5cnn(C)c5)c(C)cc43)nn2C2CN(CCC3CCN(c4ncc(C(=O)NC5C(C)(C)C(Oc6ccc(C#N)c(Cl)c6)C5(C)C)cn4)CC3)C2)C1 (stereo not drawn) [Compound 160, 2-[4-[2-[3-[5-acetyl-3-[7-methyl-6-(1-methylpyrazol-4-yl)-3,4-dihydro-2H-quinolin-1-yl]-6,7-dihydro-4H-pyrazolo[4,3-c]pyridin-1-yl]azetidin-1-yl]ethyl]-1-piperidyl]-N-[3-(3-chloro-4-cyano-phenoxy)-2,2,4,4-tetramethyl-cyclobutyl]pyrimidine-5-carboxamide]
10 | 7.00 to 8.00 | CC(=O)N1CCc2c(c(N3CCCc4cc(-c5cnn(C)c5)c(C(F)F)cc43)nn2C2CC3(C2)CN(CC2CN(c4ccc(C(=O)NC5C(C)(C)C(Oc6ccc(C#N)c(Cl)c6)C5(C)C)nn4)C2)C3)C1 (stereo not drawn) [Compound 212, 6-[3-[[6-[5-acetyl-3-[7-(difluoromethyl)-6-(1-methylpyrazol-4-yl)-3,4-dihydro-2H-quinolin-1-yl]-6,7-dihydro-4H-pyrazolo[4,3-c]pyridin-1-yl]-2-azaspiro [3.3]heptan-2-yl]methyl]azetidin-1-yl]-N-[3-(3-chloro-4-cyano-phenoxy)-2,2,4,4-tetramethyl-cyclobutyl]pyridazine-3-carboxamide]
11 | > 9.00 | COc1cc(OC2C(C)(C)C(NC(=O)c3cnc(N4CC5(CCC(N6CCC(n7nc(N8CCCc9cc(-c%10cnn(C)c%10)c(C)cc98)c8c7CCN(C(C)=O)C8)CC6)CC5)C4)nc3)C2(C)C)ccc1C#N (stereo not drawn) [Compound 469, 2-[7-[4-[5-acetyl-3-[7-methyl-6-(1-methylpyrazol-4-yl)-3,4-dihydro-2H-quinolin-1-yl]-6,7-dihydro-4H-pyrazolo[4,3-c]pyridin-1-yl]-1-piperidyl]-2-azaspiro [3.5]nonan-2-yl]-N-[3-(4-cyano-3-methoxy-phenoxy)-2,2,4,4-tetramethyl-cyclobutyl]pyrimidine-5-carboxamide]
12 | 7.00 to 8.00 | CC(=O)N1CCc2c(c(N3CCCc4cc(-c5cnn(C)c5)c(C(F)F)cc43)nn2C2CCC3(CC2)CCN(c2ncc(C(=O)NC4C(C)(C)C(Oc5ccc(C#N)c(Cl)c5)C4(C)C)cn2)C3)C1 (stereo not drawn) [Compound 407, 2-[8-[5-acetyl-3-[7-(difluoromethyl)-6-(1-methylpyrazol-4-yl)-3,4-dihydro-2H-quinolin-1-yl]-6,7-dihydro-4H-pyrazolo[4,3-c]pyridin-1-yl]-2-azaspiro[4.5]decan-2-yl]-N-[3-(3-chloro-4-cyano-phenoxy)-2,2,4,4-tetramethyl-cyclobutyl]pyrimidine-5-carboxamide]
